Test results published in patent publication US7238689B2, “Isoxazoline derivative and herbicide comprising the same as active ingredient” (Ihara Chemical Industry Co., Ltd., priority 2001, dated 2007).

How the values were obtained:
Assay type in all cases: in vivo
Design in all cases: scale not given here
[1] = system: Echinochloa crus-galli (L.) Beauv. var. crus-galli; test: Herbicidal effect by upland foliage treatment; conditions: active ingredient 1000 g/ha, examined at 14th day from treatment
Method: (§1) A sand was filled in a plastic pot of 80 cm^2. Seeds of Echinochloa crus-galli (L.) Beauv. var. crus-galli and Setaria viridis (L.) Beauv. were sowed. Breeding was made in a greenhouse for 2 weeks. Wettable powders produced in accordance with the Formulation 1 were diluted with water and sprayed on the whole foliage of plants from above the plants using a small sprayer in an amount of 1,000 liters per 1 hectare so that the amount of each active ingredient became 1,000 g per 1 hectare. Then, breeding was made in the greenhouse, and the herbicidal effect of each wettable powder was examined at the 14th day from the treatment in accordance with the standard shown in Table 21.

[2] = system: Setaria viridis (L.) Beauv.; test: Herbicidal effect by upland foliage treatment; conditions: active ingredient 1000 g/ha, examined at 14th day from treatment
Method: as §1

[3] = system: Echinochloa oryzicola Vasing; test: Herbicidal effect by paddy field soil treatment; conditions: wettable powder, active ingredient 1000 g/ha, examined at the 21st day from the treatment
Procedure, shortened: (§2)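 Seeds sown in puddled paddy soil under 3 cm of water; the next day wettable powders diluted in water were dropped onto the water surface at 1,000 g active ingredient/ha. Plants grown in a greenhouse, with herbicidal effect scored on day 21 against a rating standard.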

[4] = system: Monochoria vaginalis (Murm. f.) Presl var. plantaginea (Roxb.) Solms-Laub.; test: Herbicidal effect by paddy field soil treatment; conditions: wettable powder, active ingredient 1000 g/ha, examined at the 21st day from the treatment
Procedure, shortened: as §2

[5] = system: Echinochloa crus-galli (L.) Beauv. var. crusgalli; test: Herbicidal effect by upland field soil treatment; conditions: active ingredient 1000 g/ha, examined at 21st day from treatment
Description: (§3) An upland field soil was filled in a plastic pot of 80 cm^2. Seeds of Echinochloa crus-galli (L.) Beauv. var. crusgalli and Setaria viridis (L.) Beauv. were sowed, followed by covering with the same soil. […] Then, breeding was made in a greenhouse, and the herbicidal effect of each wettable powder was examined at the 21st day from the treatment in accordance with the standard shown in Table 21.

[6] = system: Setaria viridis (L.) Beauv.; test: Herbicidal effect by upland field soil treatment; conditions: active ingredient 1000 g/ha, examined at 21st day from treatment
Description: as §3

| Compound | herbicidal effect (index per standard of Table 21), Echinochloa curs-galli (L.) Beauv. Var. crus-galli [1] | herbicidal effect (index per standard of Table 21), Setaria viridis (L.) Beauv. [2] | Herbicidal effect index, Echinochloa oryzicola Vasing [3] | Herbicidal effect index, Monochoria vaginalis (Burm. F.) Presl var. plantaginea (Roxb.) Solms-Laub. [4] | herbicidal effect (index per standard of Table 21), Echinochloa curs-galli (L.) Beauv. Var. crus-galli [5] | herbicidal effect (index per standard of Table 21), Setaria viridis (L.) Beauv. [6] |
| --- | --- | --- | --- | --- | --- | --- |
| 5,5-dimethyl-[(4-methoxy-6-trifluoromethylpyrimidin-5-yl)-methylsulfonyl]-2-isoxazoline [8-0001] | 5 | 4 | 5 | 5 | 5 | 5 |
| Cc1ccsc1CS(=O)(=O)C1=NOC(C)(C)C1 [1-0001] | 5 | 4 | 5 | 5 | 5 | 5 |
| CC1(C)CC(S(=O)(=O)Cc2sccc2Cl)=NO1 [1-0004] | 5 | 4 | 5 | 5 | 5 | 5 |
| CC1(C)CC(S(=O)(=O)Cc2ccsc2)=NO1 [2-0003] | 5 | 4 | 5 | 5 | 5 | 5 |
| COc1cscc1CS(=O)(=O)C1=NOC(C)(C)C1 [2-0004] | 5 | 4 | 5 | 5 | 5 | 5 |
| CC(=O)c1c(C)sc(C)c1CS(=O)(=O)C1=NOC(C)(C)C1 [2-0008] | 5 | 5 | 5 | 5 | 5 | 5 |
| COC(=O)c1c(Cl)sc(Cl)c1CS(=O)(=O)C1=NOC(C)(C)C1 [2-0011] | 5 | 4 | 5 | 5 | 5 | 4 |
| Cn1ncc(CS(=O)(=O)C2=NOC(C)(C)C2)c1Cl [3-0035] | 4 | 4 | 5 | 5 | 5 | 5 |
| Cc1nn(C)c(C)c1CS(=O)(=O)C1=NOC(C)(C)C1 [3-0036] | 4 | 4 | – | – | 5 | 5 |
| Cc1nn(C)c(Cl)c1CS(=O)(=O)C1=NOC(C)(C)C1 [3-0037] | 5 | 4 | 5 | 5 | 5 | 5 |
| Cn1nc(Cl)c(CS(=O)(=O)C2=NOC(C)(C)C2)c1Cl [3-0038] | 5 | 5 | 5 | 5 | 5 | 5 |
| Cn1nc(C(F)(F)F)c(CS(=O)(=O)C2=NOC(C)(C)C2)c1Cl [3-0039] | 5 | 5 | 5 | 5 | 5 | 5 |
| CCOc1c(CS(=O)(=O)C2=NOC(C)(C)C2)c(C(F)(F)F)nn1C [3-0044] | 5 | 4 | 5 | 5 | 5 | 5 |
| Cn1nc(C(F)(F)F)c(CS(=O)(=O)C2=NOC(C)(C)C2)c1OC1CCCCC1 [3-0049] | 4 | 4 | 5 | 5 | 5 | 5 |
| CCn1nc(C(F)(F)F)c(CS(=O)(=O)C2=NOC(C)(C)C2)c1Cl [3-0073] | 5 | 4 | 5 | 5 | 5 | 5 |
| CCn1nc(Cl)c(CS(=O)(=O)C2=NOC(C)(C)C2)c1C(F)(F)F [3-0074] | 5 | 4 | 5 | 5 | 5 | 5 |
| CC(C)n1nc(Cl)c(CS(=O)(=O)C2=NOC(C)(C)C2)c1C(F)(F)F [3-0076] | 5 | 4 | – | – | – | – |
| CCCn1nc(C(F)(F)F)c(CS(=O)(=O)C2=NOC(C)(C)C2)c1Cl [3-0077] | 5 | 4 | – | – | – | – |
| CC1(C)CC(S(=O)(=O)Cc2c(C(F)(F)F)nn(CC3CC3)c2Cl)=NO1 [3-0092] | 4 | 4 | – | – | – | – |
| C=CCn1nc(C(F)(F)F)c(CS(=O)(=O)C2=NOC(C)(C)C2)c1Cl [3-0104] | 5 | 4 | – | – | – | – |
| C=CCn1nc(Cl)c(CS(=O)(=O)C2=NOC(C)(C)C2)c1C(F)(F)F [3-0105] | 5 | 4 | – | – | – | – |
| C#CCn1nc(C(F)(F)F)c(CS(=O)(=O)C2=NOC(C)(C)C2)c1Cl [3-0106] | 5 | 4 | – | – | – | – |
| C#CCn1nc(Cl)c(CS(=O)(=O)C2=NOC(C)(C)C2)c1C(F)(F)F [3-0107] | 5 | 5 | – | – | – | – |
| Cn1c(CS(=O)(=O)C2=NOC(C)(C)C2)c(Cl)c2ccccc21 [10-0018] | – | – | 5 | 5 | 5 | 5 |
